In patent publication US20090053138A1, “Stabilized Aptamers to Platelet Derived Growth Factor and their Use as Oncology Therapeutics” (priority 2002, published 2009):
Strand notation (5' to 3'): a small letter for the sugar, then the base; units joined by * are phosphorothioate-linked, units joined directly phosphodiester-linked; [ ] holds rarer units or linkages, { } end groups; capitals alone tell only the bases. [HEG] = hexaethylene glycol spacer joining aptamer pieces; [invdT] = inverted (3'-3') thymidine; d = 2'-deoxy (DNA); m = 2'-O-methyl

What was measured:
[1] = molecular target: T1, PDGF-BB (Mus musculus, UniProt P31240); assay: Competition binding assay, mouse PDGF-BB
T1 construct: purchased PeproTech, Rocky Hill, N.J
Source text: (§1) Next, a study was done to determine whether ARC126 cross reacted with PDGF-BB of species other than human. Competition binding assays were set up by dot blot analysis, as previously described, using human, rat, and mouse PDGF-BB (PeproTech, Rocky Hill, N.J.).

[2] = molecular target: T2, PDGF BB (Homo sapiens, UniProt P01127); assay: Competition binding assay, PDGF-BB; design: purchased PeproTech, Rocky Hill, N.J; settings: human PDGF-BB; read-out: Kd
Protocol: Binding reactions were carried out in phosphate-buffered saline (Cellgro, Herndon, Va.) containing 0.2 mg/mL bovine serum albumin (NEB) and 0.02 mg/mL tRNA (Sigma, St. Louis, Mo.). The reactions were equilibrated for a period of 15-30 minutes at room temperature, then filtered through a sandwich of nitrocellulose (Protran membrane, Perkin-Elmer, Boston, Mass.) and nylon (Hybond membrane, Amersham, Piscataway, N.J.) membranes to separate target bound aptamer from free aptamer.
as §1
(§2) The competitive binding assay previously described was used to determine the in vitro binding affinity and selectivity of ARC594 for different PDGF isoforms. Different concentrations of unlabeled, competitor aptamer were titrated in separate reactions against a fixed (<0.1 nM) amount of ^32P-radiolabeled ARC594 in buffer containing a fixed amount (0.1 nM) of the aptamer's cognate target (PDGF-BB; PeproTech). UnPEGylated version of ARC594 was radiolabeled at the 5′ terminus by incubation with γ-^32P-ATP (ICN) and polynucleotide kinase (NEB). Binding reactions were carried out in phosphate-buffered saline (Cellgro) containing 0.2 mg/mL bovine serum albumin (NEB) and 0.02 mg/mL tRNA (Sigma). The reactions were equilibrated for a period of 15-30 minutes at room temperature, then filtered through a sandwich of nitrocellulose (Protran membrane, Perkin-Elmer) and nylon (Hybond membrane, Amersham) membranes to separate target bound aptamer from free aptamer. […] The data was expressed as the ratio of the counts per minute (CPM) of radioactivity due to ^32P-ARC594 bound to PDGF BB on the nitrocellulose membrane (CPMnitrocellulose or CPMnc) over the total CPM (CPMtotal=CPMnitrocellulose+CPMnylon).

[3] = molecular target: T2, PDGF BB; assay: 3T3 cell proliferation assay (PDGF-BB induced); format: cell-based, rat; design: purchased PeproTech, Rocky Hill, N.J; settings: after lyophilization and storage at −20 degrees celsius for 2 years
Protocol: 3T3 cells, a rat fibroblast cell line (ATCC, Manassas, Va.), were plated 3,000 cells/well in a 96 well plate one day prior to the start of the assay in 100 ul DMEM/10% FCS. The following day, cells were washed once with straight DMEM and then 75 ul DMEM/0.8% FCS was added to each well. […] Cells were incubated for 3 days. Following incubation 10 ul MTT (Promega, Madison, Wis.) was added to each well and incubated for an additional 1.5 hours. Media was then removed, 200 ul Isopropanol (2-propanol) was added to each well, cells were re-suspended thoroughly and absorbance at 570 nm was read on a 96 well plate reader.
(§3) 3T3 cells, which are derived from a rat fibroblast cell line (ATCC, Manassas, Va.), were used in a proliferation assay to test potency of modified ARC513 aptamers. 3T3 fibroblast cells have PDGF receptors on their cell-surface and respond to mitogen, e.g., PDGF stimulation by proliferation. The assay was performed as follows: 3T3 cells were plated 3,000 cells/well in a 96 well plate one day prior to the start of the assay in 100 ul DMEM/10% FCS. The following day, cells were washed once with straight DMEM and then 75 ul DMEM/0.8% FCS was added to each well. Then 25 ul of PDGF-BB (PeproTech, Rocky Hill, N.J.) at a 50 ng/ml final concentration was added to each well +/− aptamer condition to be tested. […] The functional PDGF aptamer dilutions usually consisted of 6 points in 2-fold serial dilutions.
(§4) Cells were incubated for 3 days. Following incubation 10 ul MTT (Promega, Madison, Wis.) was added to each well and incubated for an additional 1.5 hours. Media was removed, 200 μl Isopropanol (2-propanol) was added to each well, cells were re-suspended thoroughly and absorbance at 570 nm was read on a 96 well plate reader. The present example depicts the potency comparison of PDGF aptamer ARC: 513 to that of ARC 513 variants.
The 3T3 proliferation assay previously described was used to test potency of all PEG conjugated ARC513 variants described immediately above. The assay was performed as follows: 3T3 cells were plated 3,000 cells/well in a 96 well plate one day prior to the start of the assay in 100 ul DMEM/10% FCS. The following day, cells were washed once with straight DMEM and then 75 ul DMEM/0.8% FCS was added to each well. Then 25 ul of PDGF-BB (PeproTech, Rocky Hill, N.J.) at a 50 ng/ml final concentration was added to each well +/− aptamer condition to be tested. […] The functional PDGF aptamer dilutions usually consisted of 6 points in 2-fold serial dilutions.
as §4, with “ARC513” for “ARC: 513”, “PEGylated ARC513 aptamers.” for “ARC 513 variants.”
as §3, with “3T3” for “3T3 cells, which are derived from a rat fibroblast cell line (ATCC, Manassas, Va.), were used in a proliferation assay to test potency of modified ARC513 aptamers. 3T3”, “100 μl” for “100 ul”
as §4, with “[…]” for “μl”, “reader.” for “reader. The present example depicts the potency comparison of PDGF aptamer ARC: 513 to that of ARC 513 variants.”

[4] = molecular target: PDGF AB (Homo sapiens, UniProt P01127); assay: Competition binding assay, PDGF-AB; design: purchased PeproTech, Rocky Hill, N.J
Source text: as §1
as §2, with “(Sigma).” for “(Sigma). The reactions were equilibrated for a period of 15-30 minutes at room temperature, then filtered through a sandwich of nitrocellulose (Protran membrane, Perkin-Elmer) and nylon (Hybond membrane, Amersham) membranes to separate target bound aptamer from free aptamer.”

[5] = molecular target: T2, PDGF BB; assay: Dot-blot binding assay, PDGF BB
Protocol: (§5) Binding data for the constituent aptamers and the multivalent aptamers were collected by dot-blot assays in which radio-labeled aptamer is incubated with protein target and then forced through a sandwich of nitrocellulose over nylon and the results shown in FIG. 22. Protein-associated radio-label is captured on the nitrocellulose membrane while the balance of the radio-label is captured on the nylon membrane. The radio-label data is collected on a phosphorimaging plate. […] The multivalent aptamers TK.131.012.A (SEQ ID NO. 9) and TK.131.012.B (SEQ ID NO. 10) were made synthetically.

[6] = molecular target: T3, PDGF-AA (Homo sapiens, UniProt P04085); assay: Competition binding assay, PDGF-AA
T3 construct: purchased PeproTech, Rocky Hill, N.J
Source text: as §1
as §2, with “(Sigma).” for “(Sigma). The reactions were equilibrated for a period of 15-30 minutes at room temperature, then filtered through a sandwich of nitrocellulose (Protran membrane, Perkin-Elmer) and nylon (Hybond membrane, Amersham) membranes to separate target bound aptamer from free aptamer.”

[7] = molecular target: T4, PDGF-BB (Rattus norvegicus, UniProt Q05028); assay: Competition binding assay, rat PDGF-BB
T4 construct: purchased PeproTech, Rocky Hill, N.J
Source text: as §1

[8] = molecular target: T5, VEGF (Homo sapiens, UniProt P15692); assay: Dot-blot binding assay, VEGF
T5 sequence (P15692 27-191 isoform P15692-4): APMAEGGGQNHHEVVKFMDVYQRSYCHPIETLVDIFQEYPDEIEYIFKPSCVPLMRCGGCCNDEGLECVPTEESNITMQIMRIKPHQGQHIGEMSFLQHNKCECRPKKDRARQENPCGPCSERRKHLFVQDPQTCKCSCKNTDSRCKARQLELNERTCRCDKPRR
Protocol: as §5

[9] = molecular target: T2, PDGF BB; assay: ERK phosphorylation assay in 3T3 cells; format: cell-based, mouse; design: purchased R&D Systems, Minneapolis, Minn; settings: 10 ng/ml PDGF-BB, 30 minutes
Protocol: ERK phosphorylation was used to test whether ARC124 (SEQ ID NO:11) retained its functionality after the incorporation of CpG motifs into the aptamer sequence. One hundred and fifty thousand 3T3 cells (a mouse fibroblast cell line which contains PDGF-R) were plated into an appropriate number of wells on a 12 well plate one day prior to the experiment and serum starved in 0.5% FBS overnight. Cells were treated with 10 ng/ml PDGF-BB (R&D Systems, Minneapolis, Minn.) in the presence or absence of CpG-island containing PDGF aptamers for 30 minutes. […] Protein concentration in cell lysates was determined using BIO-RAD protein assay reagent according to manufacturer's recommendations (Bio-Rad, Hercules, Calif.). Lysates were prepared by adding NuPage LDS Sample Buffer 4× with 0.1M DTT to a final concentration of 1× (invitrogen, Carlsbad, Calif.) and incubated at 70° C. for 7 minutes. Forty micrograms of total protein was loaded into each well of a NuPage 10%, Bis-Tris gel (Invitrogen, Carlsbad, Calif.). The gel was run at 100 mAmp for 1 hour. Gel was then transferred to a HyBond ECL nitrocellulose membrane (Amersham, Piscataway, N.J.) at 250 mAmp for 3 hours. After transfer, the nitrocellulose was blocked with 5% BSA (Sigma, St. Louis, Mo.) in PBS for one hour at room temperature. The nitrocellulose membrane was incubated with a p44/42 MAP Kinase antibody overnight at 4° C. […]

T2 sequence (P01127 82-190 limits assumed): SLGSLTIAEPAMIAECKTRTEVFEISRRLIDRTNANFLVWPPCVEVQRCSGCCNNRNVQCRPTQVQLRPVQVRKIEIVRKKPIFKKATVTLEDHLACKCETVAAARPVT
T1 sequence (P31240 82-190 limits assumed): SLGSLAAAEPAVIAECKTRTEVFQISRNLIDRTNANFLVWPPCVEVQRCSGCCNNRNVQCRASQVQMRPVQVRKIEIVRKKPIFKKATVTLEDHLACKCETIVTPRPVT
T4 sequence (Q05028 66-174 limits assumed): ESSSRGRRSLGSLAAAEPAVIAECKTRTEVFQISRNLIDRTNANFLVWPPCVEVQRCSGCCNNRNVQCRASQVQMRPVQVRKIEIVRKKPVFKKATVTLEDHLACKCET
Chain of PDGF AB (P01127 82-190 limits assumed, other chains not shown): as the sequence (P01127 82-190 limits assumed) above

5′-(SEQ ID NO: 1)-HEG-(SEQ ID NO:2)-HEG-(SEQ ID NO:3)-3′-dT-3′ (chain 1 CAGGCUACG; chain 2 CGTAGAGCAUCA; chain 3 TGATCCUG; piece 1: 2'-fluoro at 6, 8, 2'-O-methyl at 9, 3' [HEG], other sugars and backbone not given here; piece 2: 2'-O-methyl at 5, 7, 12, 2'-fluoro at 10, 11, 3' [HEG], other sugars and backbone not given here; piece 3: 2'-fluoro at 5, 6, 7, 2'-O-methyl at 8, 3' [invdT], other sugars and backbone not given here) [ARC126]
affinity for mouse PDGF-BB [1]: equal affinity | Kd ([1]; read-out: affinity for mouse PDGF-BB): ~0.1 nM | Kd [2]: ~0.1 nM | potency of legacy aptamers vs newly synthesized [3]: just as potent | Kd [4]: ~0.1 nM | Kd ([5]; entirely DNA ARC126 used in the multivalent aptamer): ~0.1 nM | binding to PDGF-AA [6]: does not bind | affinity for rat PDGF-BB [7]: equal affinity | Kd ([7]; read-out: affinity for rat PDGF-BB): ~0.1 nM

5′-mAmUmGmCmAmGmUmUmUmGmAmGmAmAmGmUmCmGmCmGmCmAmU-[3T]-3′ (SEQ ID NO: 7) (AUGCAGUUUGAGAAGUCGCGCAU; all 2'-O-methyl, [invdT] at 3' end, backbone not given here) [ARC245]
Kd [8]: ~2 nM

CpGARC124short: PDGF aptamer ARC124 with CpG motif appended (SEQ ID NO:20) (AACGTTCGAGCAGGCTACGGCACGTAGAGCATCACCATGATCCTGC; synthetic aptamer; (1)..(11) phosphorothiate backbone between nucleotides 1-11; (44)..(46) phosphorothiate backbone between nucleotides 44-46)
phosphorylation of ERK [9]: can block phosphorylation of ERK

LongCpGARC124: PDGF aptamer ARC124 with CpG motif appended (SEQ ID NO:21) (dG*dT*dG*dA*dA*dC*dG*dT*dT*dC*dG*dA*dG*dCdAdGdGdCdTdAdCdGdGdCdAdCdGdTdAdGdAdGdCdAdTdCdAdCdCdAdTdGdAdTdCdCdT*dG*dC[invdT]; further chemistry not fully specified)
phosphorylation of ERK [9]: can block phosphorylation of ERK

TK.131.012.A: PDGF/VEGF binding multivalent aptamer (SEQ ID NO:9) (CAGGCTACGAUGCAGUUUGAGAAGUCGCGCAUCGTAGAGCATCAGAAATGATCCTG; sugars from the 5' end d9 m23 d24, 3' [invdT], backbone not given here; further chemistry not fully specified)
Kd [5]: ~10 nM | Kd [8]: ~10 nM

TK.131.012.B: PDGF/VEGF binding multivalent aptamer (SEQ ID NO: 10) (CAGGCTACGUGCAGUUUGAGAAGUCGCGCACGTAGAGCATCAGAAATGATCCTG; sugars from the 5' end d9 m21 d24, 3' [invdT], backbone not given here; further chemistry not fully specified)
Kd [5]: ~10 nM | Kd [8]: ~5 nM
